Consider four molecules from publication PMC7179119, “A New Positron Emission Tomography Probe for Orexin Receptors Neuroimaging” (Molecules, 2020).

In data set [1] the target is T1, Human recombinant OX2 receptors (Homo sapiens, UniProt O43614).
T1 sequence (O43614 1-444): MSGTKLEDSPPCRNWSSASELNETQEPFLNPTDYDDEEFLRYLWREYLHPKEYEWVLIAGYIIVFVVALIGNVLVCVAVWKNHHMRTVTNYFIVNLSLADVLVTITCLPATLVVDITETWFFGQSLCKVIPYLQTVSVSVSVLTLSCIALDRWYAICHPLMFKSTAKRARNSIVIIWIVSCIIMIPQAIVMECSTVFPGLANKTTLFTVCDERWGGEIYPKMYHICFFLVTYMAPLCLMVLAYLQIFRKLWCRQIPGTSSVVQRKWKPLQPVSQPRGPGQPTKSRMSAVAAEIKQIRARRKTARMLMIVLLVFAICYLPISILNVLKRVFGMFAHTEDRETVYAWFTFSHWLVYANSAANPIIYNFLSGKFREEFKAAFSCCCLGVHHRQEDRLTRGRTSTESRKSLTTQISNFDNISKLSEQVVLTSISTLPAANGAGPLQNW
Kind of data set: Human Orexin GPCR Binding (Agonist Radioligand) Assay, [125I] Orexin A competition. The conditions noted are these: radioligand competition binding assay; read-out: IC50 (nM) OXR2. Here is the method: (§1) Radioligand competition binding assays were performed by Panlabs, Eurofins Pharma Discovery Services. Briefly, human recombinant orexin OX1 receptors expressed in CHO-S cells were used in modified HEPES buffer pH 7.4. […] Orexin A for 60 minutes at 25 °C. […] Orexin A specifically binding. Human recombinant OX2 receptors were used in modified HEPES buffer pH 7.4. […] Orexin A for 180 minutes at 25 °C. […] Orexin A specifically bound.

Data set [2] concerns the target T2, human recombinant orexin OX1 receptors (Homo sapiens, UniProt O43613).
T2 construct: host or cells: CHO-S cells
T2 sequence (O43613 1-425): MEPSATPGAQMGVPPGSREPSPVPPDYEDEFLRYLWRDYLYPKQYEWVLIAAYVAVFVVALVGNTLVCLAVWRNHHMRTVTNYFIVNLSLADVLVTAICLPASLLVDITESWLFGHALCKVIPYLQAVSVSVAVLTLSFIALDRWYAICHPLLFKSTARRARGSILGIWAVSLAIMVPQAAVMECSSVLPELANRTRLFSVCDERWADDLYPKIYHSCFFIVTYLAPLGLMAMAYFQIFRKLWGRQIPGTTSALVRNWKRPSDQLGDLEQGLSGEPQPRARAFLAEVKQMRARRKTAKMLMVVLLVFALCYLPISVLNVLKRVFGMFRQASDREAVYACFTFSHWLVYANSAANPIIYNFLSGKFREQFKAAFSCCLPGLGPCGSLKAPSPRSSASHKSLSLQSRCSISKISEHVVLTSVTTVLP
The description is as above. To be noted: radioligand competition binding assay; read-out: IC50 (nM) OXR1. Here is the method:
as §1
(Displacement assays read how much labelled ligand stays bound in the presence of the test substance.)

In data set [3] the test system is OXRs. Description: Mouse PET-CT blocking study of [^11C]CW24 uptake. It is filed as in vivo, mice. The method, then: (§2) Animals were anesthetized with 1–1.5% isoflurane and maintained with isoflurane during the imaging scan. In a single imaging session, mice were arranged in a Triumph PET/CT scanner (Gamma Medica, Northridge, CA). […] Animals underwent a 60 min dynamic PET scan followed by computed tomography (CT).
(§3) PET data were reconstructed using a 3D-MLEM method resulting in a full width at half-maximum resolution of 1 mm. PET and CT images in DICOM format were imported to PMOD (PMOD Technologies, Ltd. Zürich, Switzerland) and co-registered to the brain atlas. Volumes of interest (VOIs) were drawn as spheres in brain regions guided by CT structural images and summed PET data. Time-activity curves (TACs) were exported as activity per unit volume (%ID/cc) for analysis.

The nature of data set [4]: Mouse PET-CT imaging, brain uptake. It is filed as in vivo. The conditions noted are these: mice, i.v., baseline. The method, then:
as §2, §3

Data set [5] is described as follows: Macaque PET-MR imaging and Logan plot kinetic modeling. It is filed as in vivo, rhesus macaque. The conditions noted are these: all brain regions examined. Here is the method: A male rhesus macaque (14.4 kg) was included in this study. After endotracheal intubation, the macaque was catheterized antecubitally for radiotracer injection and a radial arterial line was placed for arterial blood sampling and radiometabolite analysis. The animal was anesthetized with 1.2–1.3% Isoflurane in medical oxygen throughout the imaging session. PET-MR data was acquired on a 3T Siemens MRI scanner (Munich, Germany) with a BrainPET insert. A baseline and a blocking scan were performed on the same animal. Dynamic PET image acquisition was initiated followed by a bolus administration of [^11C]CW24 (179 MBq for the baseline scan and 192 MBq for the blocking scan). To characterize the specific binding of [^11C]CW24, a blocking study was carried out in which 2.0 mg/kg IPSU (1.0 % DMSO + 1.0 % Tween 80 + 98.0 % saline to make a solution of 1.0 mg/mL) was administered 5 min prior the acquisition. A T1-weighting multi-echo magnetization-prepared rapid gradient-echo ([…]) sequence began as the PET scan for anatomic co-registration. […]
Motion-corrected PET data were registered to the INIA19 macaque MRI Template. […] With the availability of a metabolite-corrected arterial plasma data, the regional volume of distribution (VT) was calculated using Logan Plot analysis (with a fixed t* of 40 min).

Data set [6] in a line: Plasma and metabolite analysis. The format is in vivo, rhesus macaque. To be noted: macaque arterial plasma, at 30 min. The method, then:
Briefly, arterial blood samples collected (every 10 s at first 3 min post-administration of [^11C]CW24, then 5 min, 10 min, 20 min, 30 min, 45 min, 60 min, and 90 min) during macaque imaging were centrifuged to separate plasma, which was then removed and placed in an automated gamma counter. Metabolite analysis of blood samples collected from 5 to 90 min was conducted on a custom automated robot fitted with Phenomenex SPE Strata-X 500 mg solid phase extraction cartridges that were primed with ethanol (2 mL) and deionized water (20 mL). Protein precipitation was achieved by the addition of plasma (300 μL) to acetonitrile (300 μL), which was centrifuged for 1 min to obtain protein-free plasma (PFP). Three hundred microliters of PFP/acetonitrile solution was diluted into deionized water (3 mL), loaded onto the C18 cartridge, and removed of polar metabolites with 100% water. Next, a series of extractions was performed using water and acetonitrile. Each sample was counted in a WIZARD2 Automatic Gamma Counter to determine the presence of radiolabeled metabolites.

Data set [7] deals with OX2R. To be noted: OX2R vs OX1R; cited from earlier work.

For `COc1ccnc(N2CCC3(CCCN(Cc4c[nH]c5ccccc45)C3=O)CC2)n1` [IPSU, reference compound], the IC50 (usually the concentration needed to halve the response being measured) in data set [1] worked out at 3130 nM; in data set [2], 1090 nM. Also, the “reduction in [^11C]CW24 uptake” value is listed as “Approximately 10%” in data set [3] (mice brain, 0.5 mg/kg IPSU i.v. 5 min pretreatment, 30–60 mins post-injection) and “approximately 50%” in data set [3] (mice brain, 2.0 mg/kg IPSU i.v. 5 min pretreatment).
With `Cc1ccc(-n2nccn2)c(C(=O)N2CCN(c3nc4cc(Cl)ccc4o3)CC[C@H]2C)c1` [Suvorexant], the “reduction in [^11C]CW24 uptake” value in data set [3] (mouse brain, Suvorexant 5.0 mg/kg i.v., 30–60 mins post-injection) is on record as “approximately 50%”.
Consider `COc1ccnc(N2CCC3(CCCN(Cc4cn([11CH3])c5ccccc45)C3=O)CC2)n1` [[^11C]CW24], for which the “brain uptake %ID/cc at Cmax” value in data set [4] came to 3.5 %ID/cc. Further, in data set [5], the “peak standard uptake value (SUV)” value is 1.5–3.0. Besides, the “parent compound in plasma” value in data set [6] is ~ 47%.
In the case of “orexin-B: orexin peptide with 28 amino acids”, the “higher affinity for OX2R compared with OX1R” value in data set [7] is recorded as 10 fold.
